Experiments:
mGlu7 receptor [1] = biological target: T1, mGlu7 receptor (Homo sapiens, UniProt Q14831); assay: HTRF cAMP assay: antagonism of L-Glu (EC80) inhibition of forskolin-stimulated cAMP accumulation (NAM profile); assay type: cell-based; details: HEK 293 T-REx cells expressing mGlu7; 6.26 mM L-Glu (EC80); 5 μM forskolin; n = 3; read-out: IC50, antagonism of L-Glu inhibition of cAMP accumulation in the presence of forskolin
T1 construct: expressed in transfected cells
Method: (§1) A homogeneous time-resolved fluorescence (HTRF) cAMP dynamic 2 (Cisbio, Codolet, France) assay was performed as previously described ([Chruścicka et al., 2015]) with recombinant cell lines. Briefly, HEK 293 T-REx cells stably expressing mGlu7 receptor, were collected and suspended in Hanks-HEPES buffer. The cell suspension was added to compounds solution with 5 μM of forskolin (final concentration). After 5 min incubation in 37°C, 5 μl of cAMP-d2 conjugate in lysis buffer was added and mixed with the 10 μl cell suspension by means of an automated pipetting system (Tecan Evo 200, Tecan, Mannedorf, Switzerland). Next, 5 μl anti-cAMP cryptate conjugate was added and the fluorescence at 620 and 665 nm was read after 1 h (Tecan Infinite M1000). The results are shown as the 665 nm/620 nm ratio multiplied by 10^4. The detected signal was inversely proportional to the concentration of cAMP in the sample. […] Each experiment was performed three times (n = 3), and each data point was in triplicate.

mGlu7 receptor [2] = biological target: T1, mGlu7 receptor; assay: HTRF cAMP assay: potentiation of forskolin action without agonist (inverse agonist properties); assay type: cell-based; details: T-REx 293 cells, 5 μM forskolin, n = 3, read-out: IC50, potentiation of forskolin action (elevating cAMP concentration), inverse agonist properties
Method: as §1
Both compounds dose-dependently potentiated forskolin action, elevating cAMP concentration in the T-REx 293 cells (Figure 2B). […] This effect was not observed for an antagonist of mGluR7 – XAP044.

[3] = Pharmacokinetic study, plasma concentration after i.p. injection; assay type: in vivo; details: Albino Swiss, ip, mouse, 10 mg/kg i.p.; for Tmax: 10 mg/kg
Method: (§2) The mice were then perfused with 0.1M PBS to remove remaining blood from the body, and the brains were taken out for the analysis. Blood was centrifuged at 2000 rpm for 10 min at 4°C, and the plasma was collected and frozen at -80°C for further analysis.
(§3) Plasma and tissue samples from all drug-treated animals were thawed at room temperature prior to use. Standard protocol of sample preparation: 200 μl acetonitrile was added to the eppendorfs with 50 μl of studied plasma samples or tissue homogenate. Samples were mixed for 5 min on a mixer at 25°C and 1400 rpm. Tubes were then centrifuged at 2000 × g for 15 min at 4°C. About 180 μl of each supernatant was transferred into a plate well. Finally, each sample was injected into the column.
(§4) In calibration curve – serial dilution method, plasma was spiked with standard at different concentration levels. Acetonitrile was added. Mixed, centrifuged supernatant was taken.
(§5) Plasma and tissue samples from all drug-treated animals at selected time points are analyzed using previously developed a non-validated liquid chromatography-tandem mass spectrometry (LC-MS)/MS method.
(§6) LC/MS analysis was carried on a Bruker amaZon SL mass spectrometer using positive/ negative ion ESI mode. Chromatographic separation was achieved on a Ascentis Express C18 column, (5 cm × 2.1 mm, […], Supelco Technologies) at room temperature with a thermostatted column oven. A gradient elution of eluents A [acetonitrile (LiChrosolv, Reag. Ph Eur) +0.1% formic acid (Sigma–Aldrich, 98–100%)] and B (water +0.1% formic acid) was used for separation. The flow rate was set at 1 ml/min. The injection volume was 20 μl, and the time of injection was 4 min.
(§7) An Ion trap mass spectrometer (Bruker amaZon SL) was equipped with an electrospray source, operating in the positive/negative ion mode. Data were collected and processes using Bruker Quant Analysis software. Quantification of analytes was performed in SIM mode.

[4] = Pharmacokinetic study, brain concentration after i.p. injection; assay type: in vivo, mouse (Albino Swiss); details: mouse; for AUC / Cmax / Tmax / half-life: Albino Swiss, ip, brain, 10 mg/kg i.p.
Method: as §2, §3, §4, §5, §6, §7

Cytochrome P450 2B6 = biological target: T2, Cytochrome P450 2B6 (Homo sapiens, UniProt P20813); assay: Cytochrome P450 inhibition, 2B6; assay type: in vitro ADME
T2 sequence (P20813 1-491): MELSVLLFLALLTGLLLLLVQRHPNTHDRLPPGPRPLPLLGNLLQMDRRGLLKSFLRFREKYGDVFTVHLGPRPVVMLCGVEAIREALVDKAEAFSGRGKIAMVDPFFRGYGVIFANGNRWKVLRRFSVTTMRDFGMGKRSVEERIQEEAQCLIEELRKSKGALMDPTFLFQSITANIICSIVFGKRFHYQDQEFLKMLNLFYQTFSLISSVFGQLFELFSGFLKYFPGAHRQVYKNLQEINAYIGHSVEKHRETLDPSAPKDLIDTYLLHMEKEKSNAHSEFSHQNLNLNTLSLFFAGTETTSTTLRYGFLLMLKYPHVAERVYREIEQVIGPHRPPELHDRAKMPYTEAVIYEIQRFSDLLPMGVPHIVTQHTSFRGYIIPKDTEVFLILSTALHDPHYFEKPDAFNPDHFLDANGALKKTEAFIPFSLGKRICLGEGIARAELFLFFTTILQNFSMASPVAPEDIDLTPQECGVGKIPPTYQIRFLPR

Cytochrome P450 2C9 = Cytochrome P450 2C9 (Homo sapiens, UniProt P11712); assay: Cytochrome P450 inhibition, 2C9; assay type: in vitro ADME
[5] = tested on: DOI-induced head twitches; assay: DOI-induced head twitches; assay type: in vivo, Albino Swiss mice; details: mice; for Effect on DOI-induced head twitches, acute: 30 min before DOI (2.5 mg/kg)
Method: The experiment was performed according to previously described procedure ([Wierońska et al., 2012], [2013]). Immediately after a 30 min acclimatization period, DOI (2.5 mg/kg, i.p.) was administered in order to induce head twitches. The number of head twitches was then counted for 20 min. […]

[6] = tested on: MK-801-induced social interaction deficits; assay: Social interaction test (MK-801-induced deficits); assay type: in vivo, Albino Swiss mice; details: 30 min before MK-801 (0.3 mg/kg), mice
Method: The method was adapted from [de Moura Linck et al., 2008] and [Woźniak et al., 2016b]. After the 2-day habituation trial (10 min/day) a pair of mice was placed in the open field for 5 min. The social interactions between two mice were determined based on the total time spent participating in social behavior such as genital investigation, sniffing, chasing, and fighting each other. The total number of social episodes was also measured. The test was video-recorded and viewed by a trained observer.

T1 sequence (Q14831 35-915): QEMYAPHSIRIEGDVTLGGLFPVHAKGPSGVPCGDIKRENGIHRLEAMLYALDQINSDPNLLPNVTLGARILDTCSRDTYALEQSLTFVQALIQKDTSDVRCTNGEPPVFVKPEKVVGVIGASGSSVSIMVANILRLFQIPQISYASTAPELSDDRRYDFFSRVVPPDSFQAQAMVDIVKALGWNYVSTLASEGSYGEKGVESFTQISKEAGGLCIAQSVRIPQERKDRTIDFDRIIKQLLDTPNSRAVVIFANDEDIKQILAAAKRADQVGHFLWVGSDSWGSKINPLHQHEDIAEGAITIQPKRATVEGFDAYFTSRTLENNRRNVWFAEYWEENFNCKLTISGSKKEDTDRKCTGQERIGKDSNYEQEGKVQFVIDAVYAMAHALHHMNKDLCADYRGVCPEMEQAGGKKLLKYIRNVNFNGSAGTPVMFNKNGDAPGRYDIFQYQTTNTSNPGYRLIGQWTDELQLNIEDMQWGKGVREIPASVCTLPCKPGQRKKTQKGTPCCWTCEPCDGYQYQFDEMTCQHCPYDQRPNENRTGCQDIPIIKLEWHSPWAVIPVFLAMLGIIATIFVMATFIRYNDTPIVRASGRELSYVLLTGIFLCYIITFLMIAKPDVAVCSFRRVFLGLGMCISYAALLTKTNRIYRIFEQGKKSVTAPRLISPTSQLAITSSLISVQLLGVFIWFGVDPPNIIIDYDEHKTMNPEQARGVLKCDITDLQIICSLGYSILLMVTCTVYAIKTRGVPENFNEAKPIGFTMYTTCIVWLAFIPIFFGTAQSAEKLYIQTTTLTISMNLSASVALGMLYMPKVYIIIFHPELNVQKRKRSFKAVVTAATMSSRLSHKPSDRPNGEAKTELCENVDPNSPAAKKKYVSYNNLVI
Sequence of Cytochrome P450 2C9 (P11712 whole entry): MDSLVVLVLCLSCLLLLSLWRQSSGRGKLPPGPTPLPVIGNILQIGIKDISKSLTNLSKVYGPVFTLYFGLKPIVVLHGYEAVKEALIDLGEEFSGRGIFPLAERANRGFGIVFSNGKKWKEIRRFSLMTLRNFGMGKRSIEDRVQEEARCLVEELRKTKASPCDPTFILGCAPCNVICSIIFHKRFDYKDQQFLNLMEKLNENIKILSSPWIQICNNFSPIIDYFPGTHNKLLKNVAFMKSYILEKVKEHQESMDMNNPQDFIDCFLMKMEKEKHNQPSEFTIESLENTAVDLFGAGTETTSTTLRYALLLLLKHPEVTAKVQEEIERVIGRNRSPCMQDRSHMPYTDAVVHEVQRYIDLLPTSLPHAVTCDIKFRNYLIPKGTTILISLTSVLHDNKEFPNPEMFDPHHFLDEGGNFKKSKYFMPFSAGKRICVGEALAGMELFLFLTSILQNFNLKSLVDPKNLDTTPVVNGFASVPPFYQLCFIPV

For COc1ccc(-c2cc3onc(-c4ccncc4)c3c(=O)n2C)cc1 [MMPIP, 6-(4-Methoxyphenyl)-5-methyl-3-(4-pyridinyl)-isoxazolo(4,5-c)pyridin-4(5H)-one], the IC50 (mGlu7 receptor [1]) was 380 nM, the IC50 (mGlu7 receptor [2]) was 340 nM and the AUC [3] was 13.5 µM·h. For the same molecule, the Cmax [3] was 9.85 µM, the half-life [3] was 69.6 min and the Tmax [3] was 30 min. For the same molecule, the Concentration in brain ([4]; 0,5 h after 10 mg/kg i.p.) was 5,42 μM, the Concentration in brain ([4]; 0,25 h after 10 mg/kg i.p.) was 3,63 μM and the Concentration in brain ([4]; 1 h after 10 mg/kg i.p.) was 2,44 μM. For the same molecule, the Concentration in brain ([4]; 2 h after 10 mg/kg i.p.) was 1,79 μM, the AUC [4] was 8.98 µM·h and the Cmax [4] was 5.42 µM. For the same molecule, the Tmax [4] was 30 min, the half-life [4] was 105 min and the IC50 (Cytochrome P450 2B6) was over 10000 nM. For the same molecule, the IC50 (Cytochrome P450 2C9) was over 10000 nM, the “Effect on DOI-induced head twitches, acute” value (“Effect … acute” for short) ([5]; 5 mg/kg i.p.) was “significantly reduced DOI-induced head twitches” and the “Effect on DOI-induced head twitches, chronic (10 days) administration” value (shortened to “Effect … (10 days) administration”) ([5]; 5 mg/kg) was “statistically significant effect”. For the same molecule, the “Effect … acute” value ([5]; 10 mg/kg i.p.) was “significantly reduced DOI-induced head twitches”, the “Effect … (10 days) administration” value ([5]; 10 mg/kg) was “statistically significant effect” and the “Effect … acute” value ([5]; 15 mg/kg i.p.) was “significantly reduced DOI-induced head twitches”. For the same molecule, the “Effect on MK-801-induced reduction of number of social episodes” value ([6]; 5, 10, and 20 mg/kg i.p.) was “no effect” and the “Effect on MK-801-induced reduction of time of interaction” value ([6]; 5, 10, and 20 mg/kg i.p.) was “no effect”.

For CCc1nc2c(o1)CC(c1ccc(C)cc1C)CC2=O (stereo not drawn) [ADX71743, 6-(2,4-Dimethylphenyl)-2-ethyl-6,7-dihydro-4(5H)-benzoxazolone], the IC50 (mGlu7 receptor [1]) was 440 nM, the IC50 (mGlu7 receptor [2]) was 220 nM and the AUC [3] was 1.9 µM·h. It also gave a Cmax [3] of 3.73 µM, a half-life [3] of 54 min and a Tmax [3] of 15 min. The Concentration in brain ([4]; 0,5 h after 10 mg/kg i.p.) was 2,09 μM, the Concentration in brain ([4]; 0,25 h after 10 mg/kg i.p.) was 3,38 μM and the Concentration in brain ([4]; 1 h after 10 mg/kg i.p.) was 0,79 μM. For the same molecule, the Concentration in brain ([4]; 2 h after 10 mg/kg i.p.) was 0,09 μM, the AUC [4] was 2.27 µM·h and the Cmax [4] was 3.38 µM. For the same molecule, the Tmax [4] was 15 min, the half-life [4] was 20.4 min and the IC50 (Cytochrome P450 2B6) was over 10000 nM. For the same molecule, the IC50 (Cytochrome P450 2C9) was over 10000 nM, the “Effect … (10 days) administration” value ([5]; 2.5 mg/kg) was “statistical effect” and the “Effect … (10 days) administration” value ([5]; 5 mg/kg) was “statistical effect”. For the same molecule, the “Effect on MK-801-induced reduction of duration of social interaction” value ([6]; 5 mg/kg i.p.) was “reversed the effect of MK-801”, the “Effect on MK-801-induced reduction of number of social episodes” value ([6]; 5 mg/kg i.p.) was “reversed the effect of MK-801” and the “Effect on MK-801-induced reduction of duration of social interaction” value ([6]; 15 mg/kg i.p.) was “reversed the effect of MK-801”. The “Effect on MK-801-induced reduction of number of social episodes” value ([6]; 15 mg/kg i.p.) was “reversed the effect of MK-801”.

Source: publication PMC6158327, “Negative Allosteric Modulators of mGlu7 Receptor as Putative Antipsychotic Drugs” (Frontiers in Molecular Neuroscience, 2018)
